Reference: US20200354426A1 (MEDIMMUNE LIMITED, priority 2016, published 2020)
Numbered stars: 1 amine (or outer) side, 2 acyl side, 3 side chain; on linkers, the order of the positions; unused ones are H or OH. Side chains are listed from the residue outwards. Peptide text beside a SMILES is read from it. * marks the point of attachment. γGlu = O=C(O)[C@H](CCC(=O)[*:2])N[*:1]; Palmitoyl = CCCCCCCCCCCCCCCC(=O)*

Assays:
Assay in all cases: cAMP activity assay in assay medium (assay 1)
Assay type in all cases: cell-based
Human GLP1R = Human GLP1R (Homo sapiens, UniProt P43220); parameters: expressed in transfected cells; settings: assay medium; Table 4; read-out: hGLP1R EC50
Sequence of Human GLP1R (P43220 24-463): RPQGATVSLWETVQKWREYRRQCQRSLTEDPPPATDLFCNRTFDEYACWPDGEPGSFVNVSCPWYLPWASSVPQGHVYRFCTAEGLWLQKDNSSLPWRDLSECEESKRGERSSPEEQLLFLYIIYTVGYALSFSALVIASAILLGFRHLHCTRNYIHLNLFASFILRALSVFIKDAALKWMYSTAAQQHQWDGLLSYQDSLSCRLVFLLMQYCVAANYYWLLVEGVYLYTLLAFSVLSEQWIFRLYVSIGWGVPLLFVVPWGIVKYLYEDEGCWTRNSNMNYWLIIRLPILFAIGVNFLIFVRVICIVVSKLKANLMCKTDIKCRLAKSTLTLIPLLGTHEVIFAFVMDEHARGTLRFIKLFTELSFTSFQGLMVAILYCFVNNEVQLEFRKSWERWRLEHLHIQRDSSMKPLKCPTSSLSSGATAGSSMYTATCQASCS
Text: (§1) Biological Activity of Peptides in Cell-Based cAMP Activity Assay (Assay 1):
(§2) All sample dilutions were made in duplicate.

Human GIPr = biological target: T1, Human GIPr (Homo sapiens, UniProt P48546); settings: assay medium; Table 4; read-out: hGIPR EC50
T1 construct: expressed in transfected cells
T1 sequence (P48546 22-466): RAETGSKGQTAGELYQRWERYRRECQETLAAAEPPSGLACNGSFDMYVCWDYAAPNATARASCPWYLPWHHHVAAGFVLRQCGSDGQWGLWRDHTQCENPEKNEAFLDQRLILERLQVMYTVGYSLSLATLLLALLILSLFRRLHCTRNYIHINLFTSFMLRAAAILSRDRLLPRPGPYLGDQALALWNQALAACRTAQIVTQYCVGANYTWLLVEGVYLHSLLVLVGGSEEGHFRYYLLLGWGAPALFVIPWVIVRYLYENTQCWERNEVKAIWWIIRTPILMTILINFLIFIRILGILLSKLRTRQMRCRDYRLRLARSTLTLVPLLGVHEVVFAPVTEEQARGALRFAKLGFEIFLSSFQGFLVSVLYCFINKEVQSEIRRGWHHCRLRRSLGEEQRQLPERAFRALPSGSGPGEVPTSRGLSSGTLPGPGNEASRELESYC
Text: as §1, §2

Human GlucR = biological target: T2, Human GlucR (Homo sapiens, UniProt P47871); settings: assay medium; Table 4; read-out: hGlucR EC50
T2 construct: expressed in transfected cells
T2 sequence (P47871 26-477): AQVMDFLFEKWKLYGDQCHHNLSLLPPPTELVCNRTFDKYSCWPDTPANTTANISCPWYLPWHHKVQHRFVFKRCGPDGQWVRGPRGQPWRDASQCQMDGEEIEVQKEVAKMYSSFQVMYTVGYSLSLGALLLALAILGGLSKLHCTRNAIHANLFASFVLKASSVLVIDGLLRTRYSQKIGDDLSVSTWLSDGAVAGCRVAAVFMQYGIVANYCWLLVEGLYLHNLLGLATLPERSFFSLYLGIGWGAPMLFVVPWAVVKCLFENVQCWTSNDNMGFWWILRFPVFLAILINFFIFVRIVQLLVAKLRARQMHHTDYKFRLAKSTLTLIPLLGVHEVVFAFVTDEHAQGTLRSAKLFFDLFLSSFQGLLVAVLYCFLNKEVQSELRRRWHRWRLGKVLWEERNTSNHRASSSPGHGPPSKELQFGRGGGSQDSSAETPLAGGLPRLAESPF
Text: as §1, §2

Row | EC50 (Human GLP1R) | EC50 (Human GIPr) | EC50 (Human GlucR) | Compound
1 | 31.4 pM | 3650 pM | 10.6 pM | CC(C)C[C@H](NC(=O)[C@H](Cc1ccc(O)cc1)NC(=O)[C@H](CCCCN)NC(=O)[C@H](CO)NC(=O)[C@H](Cc1ccc(O)cc1)NC(=O)[C@H](CC(=O)O)NC(=O)[C@H](CO)NC(=O)[C@@H](NC(=O)[C@H](Cc1ccccc1)NC(=O)[C@@H](NC(=O)CNC(=O)[C@H](CCC(N)=O)NC(=O)[C@H](CO)NC(=O)[C@@H](N)Cc1c[nH]cn1)[C@@H](C)O)[C@@H](C)O)C(=O)N[C@@H](CC(=O)O)C(=O)N[C@@H](CO)C(=O)N[C@@H](CCCNC(=N)N)C(=O)N[C@@H](CCCNC(=N)N)C(=O)N[C@@H](C)C(=O)N[C@@H](CCC(N)=O)C(=O)N[C@@H](CC(=O)O)C(=O)N[C@@H](Cc1ccccc1)C(=O)N[C@H](C(=O)N[C@@H](CCC(N)=O)C(=O)N[C@@H](Cc1c[nH]c2ccccc12)C(=O)N[C@@H](CC(C)C)C(=O)N[C@H](C(=O)N[C@@H](CCCNC(=N)N)C(=O)NCC(=O)NCC(=O)N[C@@H](CO)C(=O)N[C@@H](CO)C(=O)NCC(=O)NCC(=O)N[C@@H](CO)C(=O)N[C@@H](CO)C(N)=O)C(C)C)C(C)C [g316]
2 | 10.6 pM | 1720 pM | 3.55 pM | CCCCCCCCCCCCCCCC(=O)NCCCC[C@H](NC(=O)[C@H](C)NC(=O)[C@@H](NC(=O)[C@H](CC(N)=O)NC(=O)[C@H](CC(N)=O)NC(=O)[C@H](CCCNC(=N)N)NC(=O)[C@H](CC(N)=O)NC(=O)[C@H](CC(N)=O)NC(=O)[C@H](CCCCN)NC(=O)CNC(=O)CNC(=O)[C@H](CCCNC(=N)N)NC(=O)[C@@H](NC(=O)[C@H](CC(C)C)NC(=O)[C@H](Cc1c[nH]c2ccccc12)NC(=O)[C@H](CCC(N)=O)NC(=O)[C@@H](NC(=O)[C@H](Cc1ccccc1)NC(=O)[C@H](CC(=O)O)NC(=O)[C@H](CCC(N)=O)NC(=O)[C@H](C)NC(=O)[C@H](CCCNC(=N)N)NC(=O)[C@H](CCCNC(=N)N)NC(=O)[C@H](CO)NC(=O)[C@H](CC(=O)O)NC(=O)[C@H](CC(C)C)NC(=O)[C@H](Cc1ccc(O)cc1)NC(=O)[C@H](CCCCN)NC(=O)[C@H](CO)NC(=O)[C@H](Cc1ccc(O)cc1)NC(=O)[C@H](CC(=O)O)NC(=O)[C@H](CO)NC(=O)[C@@H](NC(=O)[C@H](Cc1ccccc1)NC(=O)[C@@H](NC(=O)CNC(=O)[C@H](CCC(N)=O)NC(=O)[C@H](CO)NC(=O)[C@@H](N)Cc1c[nH]cn1)[C@@H](C)O)[C@@H](C)O)C(C)C)C(C)C)[C@@H](C)CC)C(N)=O [g322] (H-HSQGTFTSDYSKYLDSRRAQDFVQWLVRGGKNNRNNIAK(Palmitoyl)-NH2; N-terminus assumed)
3 | 24.7 pM | 12600 pM | 2.82 pM | CCCCCCCCCCCCCCCC(=O)NCCCC[C@H](NC(=O)CNC(=O)CNC(=O)CNC(=O)CNC(=O)CNC(=O)CNC(=O)[C@H](CCCNC(=N)N)NC(=O)[C@@H](NC(=O)[C@H](CC(C)C)NC(=O)[C@H](Cc1c[nH]c2ccccc12)NC(=O)[C@H](CCC(N)=O)NC(=O)[C@@H](NC(=O)[C@H](Cc1ccccc1)NC(=O)[C@H](CC(=O)O)NC(=O)[C@H](CCC(N)=O)NC(=O)[C@H](C)NC(=O)[C@H](CCCNC(=N)N)NC(=O)[C@H](CCCNC(=N)N)NC(=O)[C@H](CO)NC(=O)[C@H](CC(=O)O)NC(=O)[C@H](CC(C)C)NC(=O)[C@H](Cc1ccc(O)cc1)NC(=O)[C@H](CCCCN)NC(=O)[C@H](CO)NC(=O)[C@H](Cc1ccc(O)cc1)NC(=O)[C@H](CC(=O)O)NC(=O)[C@H](CO)NC(=O)[C@@H](NC(=O)[C@H](Cc1ccccc1)NC(=O)[C@@H](NC(=O)CNC(=O)[C@H](CCC(N)=O)NC(=O)[C@H](CO)NC(=O)[C@@H](N)Cc1c[nH]cn1)[C@@H](C)O)[C@@H](C)O)C(C)C)C(C)C)C(N)=O [g326]
4 | 19.3 pM | 12800 pM | 2.32 pM | CCCCCCCCCCCCCCCC(=O)N[C@@H](CCC(=O)NCCCC[C@H](NC(=O)CNC(=O)CNC(=O)CNC(=O)CNC(=O)CNC(=O)CNC(=O)[C@H](CCCNC(=N)N)NC(=O)[C@@H](NC(=O)[C@H](CC(C)C)NC(=O)[C@H](Cc1c[nH]c2ccccc12)NC(=O)[C@H](CCC(N)=O)NC(=O)[C@@H](NC(=O)[C@H](Cc1ccccc1)NC(=O)[C@H](CC(=O)O)NC(=O)[C@H](CCC(N)=O)NC(=O)[C@H](C)NC(=O)[C@H](CCCNC(=N)N)NC(=O)[C@H](CCCNC(=N)N)NC(=O)[C@H](CO)NC(=O)[C@H](CC(=O)O)NC(=O)[C@H](CC(C)C)NC(=O)[C@H](Cc1ccc(O)cc1)NC(=O)[C@H](CCCCN)NC(=O)[C@H](CO)NC(=O)[C@H](Cc1ccc(O)cc1)NC(=O)[C@H](CC(=O)O)NC(=O)[C@H](CO)NC(=O)[C@@H](NC(=O)[C@H](Cc1ccccc1)NC(=O)[C@@H](NC(=O)CNC(=O)[C@H](CCC(N)=O)NC(=O)[C@H](CO)NC(=O)[C@@H](N)Cc1c[nH]cn1)[C@@H](C)O)[C@@H](C)O)C(C)C)C(C)C)C(N)=O)C(=O)O [g327]
5 | 73.3 pM | 582000 pM | 10.5 pM | CCCCCCCCCCCCCCCC(=O)N[C@@H](CCC(=O)NCCCC[C@H](NC(=O)[C@H](CO)NC(=O)[C@H](CC(=O)O)NC(=O)[C@H](CC(C)C)NC(=O)[C@H](Cc1ccc(O)cc1)NC(=O)[C@H](CCCCN)NC(=O)[C@H](CO)NC(=O)[C@H](Cc1ccc(O)cc1)NC(=O)[C@H](CC(=O)O)NC(=O)[C@H](CO)NC(=O)[C@@H](NC(=O)[C@H](Cc1ccccc1)NC(=O)[C@@H](NC(=O)CNC(=O)[C@H](CCC(N)=O)NC(=O)[C@H](CO)NC(=O)[C@@H](N)Cc1c[nH]cn1)[C@@H](C)O)[C@@H](C)O)C(=O)N[C@@H](CCCNC(=N)N)C(=O)N[C@@H](C)C(=O)N[C@@H](CCC(N)=O)C(=O)N[C@@H](CC(=O)O)C(=O)N[C@@H](Cc1ccccc1)C(=O)N[C@H](C(=O)N[C@@H](CCC(N)=O)C(=O)N[C@@H](Cc1c[nH]c2ccccc12)C(=O)N[C@@H](CC(C)C)C(=O)N[C@H](C(=O)N[C@@H](C)C(=O)NCC(=O)NCC(N)=O)C(C)C)C(C)C)C(=O)O [g335]
6 | 36.6 pM | 19600 pM | 1.77 pM | CCCCCCCCCCCCCCCC(=O)N[C@@H](CCC(=O)N[C@@H](CCC(=O)NCCCC[C@H](NC(=O)[C@H](CO)NC(=O)[C@H](CC(=O)O)NC(=O)[C@H](CC(C)C)NC(=O)[C@H](Cc1ccc(O)cc1)NC(=O)[C@H](CCCCN)NC(=O)[C@H](CO)NC(=O)[C@H](Cc1ccc(O)cc1)NC(=O)[C@H](CC(=O)O)NC(=O)[C@H](CO)NC(=O)[C@@H](NC(=O)[C@H](Cc1ccccc1)NC(=O)[C@@H](NC(=O)CNC(=O)[C@H](CCC(N)=O)NC(=O)[C@H](CO)NC(=O)[C@@H](N)Cc1c[nH]cn1)[C@@H](C)O)[C@@H](C)O)C(=O)N[C@@H](CCCNC(=N)N)C(=O)N[C@@H](C)C(=O)N[C@@H](CCC(N)=O)C(=O)N[C@@H](CC(=O)O)C(=O)N[C@@H](Cc1ccccc1)C(=O)N[C@H](C(=O)N[C@@H](CCC(N)=O)C(=O)N[C@@H](Cc1c[nH]c2ccccc12)C(=O)N[C@@H](CC(C)C)C(=O)N[C@H](C(=O)N[C@@H](C)C(=O)NCC(=O)NCC(N)=O)C(C)C)C(C)C)C(=O)O)C(=O)O [g336]
7 | 90.8 pM | 545000 pM | 1930 pM | CCCCCCCCCCCCCCCC(=O)N[C@@H](CCC(=O)NCCCC[C@H](NC(=O)[C@H](CO)NC(=O)[C@H](CC(=O)O)NC(=O)[C@H](CC(C)C)NC(=O)[C@H](Cc1ccc(O)cc1)NC(=O)[C@H](CCCCN)NC(=O)[C@H](CO)NC(=O)[C@H](Cc1ccc(O)cc1)NC(=O)[C@H](CC(=O)O)NC(=O)[C@H](CO)NC(=O)[C@@H](NC(=O)[C@H](Cc1ccccc1)NC(=O)[C@@H](NC(=O)CNC(=O)[C@H](CCC(=O)O)NC(=O)[C@H](CO)NC(=O)[C@@H](N)Cc1c[nH]cn1)[C@@H](C)O)[C@@H](C)O)C(=O)N[C@@H](CCCNC(=N)N)C(=O)N[C@@H](C)C(=O)N[C@@H](CCC(N)=O)C(=O)N[C@@H](CC(=O)O)C(=O)N[C@@H](Cc1ccccc1)C(=O)N[C@H](C(=O)N[C@@H](CCC(N)=O)C(=O)N[C@@H](Cc1c[nH]c2ccccc12)C(=O)N[C@@H](CC(C)C)C(=O)N[C@H](C(=O)N[C@@H](C)C(=O)NCC(=O)NCC(N)=O)C(C)C)C(C)C)C(=O)O [g381] (H-HSEGTFTSDYSKYLDSK([γGlu-Palmitoyl])RAQDFVQWLVAGG-NH2; N-terminus assumed)

Row | Compound | EC50 (Human GLP1R) | EC50 (Human GIPr) | EC50 (Human GlucR)
8 | CCCCCCCCCCCCCCCC(=O)NCCCC[C@H](NC(=O)[C@H](CO)NC(=O)[C@@H]1CCCN1C(=O)[C@@H]1CCCN1C(=O)[C@@H]1CCCN1C(=O)[C@H](C)NC(=O)CNC(=O)[C@H](CO)NC(=O)[C@H](CO)NC(=O)[C@@H]1CCCN1C(=O)CNC(=O)CNC(=O)[C@H](CCCNC(=N)N)NC(=O)[C@@H](NC(=O)[C@H](CC(C)C)NC(=O)[C@H](Cc1c[nH]c2ccccc12)NC(=O)[C@H](CCC(N)=O)NC(=O)[C@@H](NC(=O)[C@H](Cc1ccccc1)NC(=O)[C@H](CC(=O)O)NC(=O)[C@H](CCC(N)=O)NC(=O)[C@H](C)NC(=O)[C@H](CCCNC(=N)N)NC(=O)[C@H](CCCNC(=N)N)NC(=O)[C@H](CO)NC(=O)[C@H](CC(=O)O)NC(=O)[C@H](CC(C)C)NC(=O)[C@H](Cc1ccc(O)cc1)NC(=O)[C@H](CCCCN)NC(=O)[C@H](CO)NC(=O)[C@H](Cc1ccc(O)cc1)NC(=O)[C@H](CC(=O)O)NC(=O)[C@H](CO)NC(=O)[C@@H](NC(=O)[C@H](Cc1ccccc1)NC(=O)[C@@H](NC(=O)CNC(=O)[C@H](CCC(N)=O)NC(=O)[C@H](CO)NC(=O)[C@@H](N)Cc1c[nH]cn1)[C@@H](C)O)[C@@H](C)O)C(C)C)C(C)C)C(N)=O [g320] (H-HSQGTFTSDYSKYLDSRRAQDFVQWLVRGGPSSGAPPPSK(Palmitoyl)-NH2; N-terminus assumed) | 9.38 pM | 1010 pM | 3.2 pM
